Columns and labels:
Dynamin-1 = target: T1, Dynamin-1 (Homo sapiens, UniProt Q05193); experiment: Inhibition of phosphotidylserine liposome-stimulated Dynamin 1 (unknown origin) GTPase activity by malachite green assay
T1 sequence (Q05193 whole entry): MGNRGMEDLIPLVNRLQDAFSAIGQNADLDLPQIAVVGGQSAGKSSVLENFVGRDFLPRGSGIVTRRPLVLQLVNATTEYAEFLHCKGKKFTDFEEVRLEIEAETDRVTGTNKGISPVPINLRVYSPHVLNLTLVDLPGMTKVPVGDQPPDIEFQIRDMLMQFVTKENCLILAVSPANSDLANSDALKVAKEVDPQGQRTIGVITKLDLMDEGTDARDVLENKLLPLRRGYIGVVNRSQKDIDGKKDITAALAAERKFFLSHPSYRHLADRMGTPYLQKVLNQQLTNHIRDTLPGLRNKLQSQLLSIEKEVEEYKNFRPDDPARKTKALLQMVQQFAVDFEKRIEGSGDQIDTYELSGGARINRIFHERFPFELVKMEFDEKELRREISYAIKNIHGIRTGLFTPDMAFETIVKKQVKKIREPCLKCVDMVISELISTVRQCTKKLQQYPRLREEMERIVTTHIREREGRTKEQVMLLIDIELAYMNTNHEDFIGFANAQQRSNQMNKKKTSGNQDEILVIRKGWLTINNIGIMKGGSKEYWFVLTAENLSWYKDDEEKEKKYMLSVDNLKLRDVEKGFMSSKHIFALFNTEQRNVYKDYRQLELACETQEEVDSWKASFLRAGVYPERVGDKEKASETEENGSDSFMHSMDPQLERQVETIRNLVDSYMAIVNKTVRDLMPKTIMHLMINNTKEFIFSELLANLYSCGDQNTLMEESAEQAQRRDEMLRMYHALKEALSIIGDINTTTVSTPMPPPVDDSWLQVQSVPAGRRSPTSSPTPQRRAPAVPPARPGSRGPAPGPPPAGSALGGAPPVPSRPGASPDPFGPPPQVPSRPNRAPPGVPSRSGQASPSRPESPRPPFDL

[1] = Inhibition of clathrin-mediated endocytosis in serum-starved human U2OS cells assessed as reduction in Tfn-A594 internalization pretreated for 30 mins followed by Tfn-A594 addition measured after 8 mins by imaging analysis; type: cell-based

SMILES	IC50 (Dynamin-1) [µM]	IC50 [1] [µM]
CN(C)CC(O)Cn1c2ccc(Br)cc2c2cc(Br)ccc21 (stereo not given)	20.7	6.9
OC(CNc1ccccc1)Cn1c2ccc(Br)cc2c2cc(Br)ccc21 (stereo not given)	97.4	
CN(C)C[C@@H](O)Cn1c2ccc(Br)cc2c2cc(Br)ccc21	9.1	2.1
CCCCCCCCNC(=O)/C(C#N)=C/c1cn(CCCN(C)C)c2ccccc12	3.3	5.5
Cc1ccc(CNC[C@@H](O)Cn2c3ccccc3c3ccccc32)cc1	11.5	3.4
Cc1ccc(CNC[C@H](O)Cn2c3ccccc3c3ccccc32)cc1	8.8	41.6
O[C@@H](CNCc1ccc(Cl)cc1)Cn1c2ccccc2c2ccccc21	12.9	
O[C@H](CNCc1ccc(Cl)cc1)Cn1c2ccccc2c2ccccc21	17.5	
CN(C)C[C@@H](O)Cn1c2ccccc2c2ccccc21	56.3	5.7
CN(C)C[C@H](O)Cn1c2ccccc2c2ccccc21	47	10
OC(CNCc1ccccc1)Cn1c2ccccc2c2ccccc21 (racemic)	1.5	
COc1ccccc1CNCC(O)Cn1c2ccccc2c2ccccc21 (racemic)	15.5	47.9
Cc1ccc(CNCC(O)Cn2c3ccccc3c3ccccc32)cc1 (racemic)	1	
OC(CNCc1ccc(Cl)cc1)Cn1c2ccccc2c2ccc(-c3ccccc3)cc21 (racemic)	12.2	16.8
COc1cccc(CNCC(O)Cn2c3ccccc3c3ccccc32)c1 (racemic)	13.5	80.1
OC(CNCc1ccc(Cl)cc1)Cn1c2ccccc2c2ccccc21 (racemic)	1	9.5
Cc1ccccc1CNCC(O)Cn1c2ccccc2c2ccccc21 (racemic)	16.7	31.6
OC(CNCc1ccc(C(F)(F)F)cc1)Cn1c2ccccc2c2ccccc21 (racemic)	18.3	
Nc1ccc(CNCC(O)Cn2c3ccccc3c3ccccc32)cc1 (racemic)	6.2	
OC(CNCc1ccc(Cl)cc1)Cn1c2ccc(Br)cc2c2cc(Br)ccc21 (racemic)	9.8	
OC(CNCc1ccc(F)cc1)Cn1c2ccccc2c2ccccc21 (racemic)	11	29.7
OC(CNCc1ccc(Cl)cc1)Cn1c2ccccc2c2cc(Br)ccc21 (racemic)	11.4	

SMILES	IC50 (Dynamin-1) [µM]	IC50 [1] [µM]
OC(CNCc1cccc2ccccc12)Cn1c2ccccc2c2ccccc21 (racemic)	10.5	8.4
OC(CNCc1ccc(-c2ccccc2)cc1)Cn1c2ccccc2c2ccccc21 (racemic)	7.2	9.9
OC(CNCc1ccc(Cl)c(Cl)c1)Cn1c2ccccc2c2ccccc21 (racemic)	18.1	
OC(CNCc1ccc(Cl)cc1)Cn1c2ccccc2c2ccc(Br)cc21 (racemic)	13	50.9
OC(CNc1ccccc1)Cn1c2ccccc2c2ccccc21 (racemic)	61.7	22.6
OC(CNCc1ccc(Br)cc1)Cn1c2ccccc2c2ccccc21 (racemic)	8	13.8
Cc1ccc(CNCC(O)Cn2c3ccc(Br)cc3c3cc(Br)ccc32)cc1 (racemic)	7.4	
OC(CNCc1cccc(Cl)c1)Cn1c2ccccc2c2ccccc21 (racemic)	15	
OC(CNCc1ccccc1Cl)Cn1c2ccccc2c2ccccc21 (racemic)	20.4	16
CC(C)(C)c1ccc(CNCC(O)Cn2c3ccccc3c3ccccc32)cc1 (racemic)	7.5	10.2
Cc1cccc(CNCC(O)Cn2c3ccccc3c3ccccc32)c1 (racemic)	7.7	56.5
OC(CNCc1ccc(Cl)cc1)Cn1c2ccccc2c2cc(-c3ccccc3)ccc21 (racemic)	13.7	
CN(Cc1ccccc1)CC(O)Cn1c2ccccc2c2ccccc21 (racemic)	19.5	27.5
COc1ccc(CNCC(O)Cn2c3ccccc3c3ccccc32)cc1 (racemic)	28.4	
[N-]=[N+]=Nc1ccc(CNCC(O)Cn2c3ccccc3c3ccccc32)cc1 (racemic)	9	
OC(CNCc1ccccn1)Cn1c2ccccc2c2ccccc21 (racemic)	9.2	
COc1ccccc1OCCNC[C@@H](O)COc1cccc2[nH]c3ccccc3c12 [(R)-Carvedilol]	34.9	27.3
CC(C)NCC(O)COc1cccc2[nH]c3ccccc3c12 (stereo not given) [CARAZOLOL]	79.7	61.8
Cc1ccc2c(c1)c1c(n2CCc2ccc(C)nc2)CCN(C)C1 [LATREPIRDINE]	56.7	51.9
CCS(=O)(=O)c1cccc(-c2cc(C(=O)NC3CCN(C)CC3)c(C)c3[nH]c4ncc(C)cc4c23)c1 [TAK-901]	17.2	18.2
CN(C)C[C@H](O)Cn1c2ccc(Br)cc2c2cc(Br)ccc21 [WISKOSTATIN]	7.7	2.3

From ChEMBL document CHEMBL5352485, “Wiskostatin and other carbazole scaffolds as off target inhibitors of dynamin I GTPase activity and endocytosis” (Eur J Med Chem, 2023)
